Reference: patent US10273224B2, “Substituted pyrimidine compounds, compositions and medicinal applications thereof” (JUBILANT BIOSYS LIMITED, priority 2013, dated 2019)
Structures can show the parent of a compound that is named as a salt.

target: T1, EGFR (L858R & T790M) (Homo sapiens, UniProt P00533, L858R/T790M); assay: EGFR (L858R & T790M) inhibition assay, HTRF method; details: biochemical HTRF; EGFR (T790M/L858R) 2.5 nM, ATP 5 μM, 60 min room temperature
T1 construct: GST; purchased Proqinase
Experimental: Example 25: Biological Activity: EGFR T790M Assay Protocol
The objective of the experiment is to find the IC50 for the compounds using HTRF method.
Reagents for Enzyme Assay:
1. Enzyme Assay Buffer: 60 mM HEPES (pH 7.4), 50 mM NaCl, 20 mM MgCl2, 5 mM MnCl2, filter using 0.2 µm pore size, store at 4° C.
Supplements (add fresh to the enzyme buffer): Make 1M DTT stock, 5% BSA stock and 0.1M Na3OV4 stored at 4° C. Enzyme assay buffer 50 ml, 1 M DTT 100 μl, 5% BSA 500 μl, 0.1M Na3OV4 50 μl.
2. GST-hEGFR (L858R), active: EGFR (T790M/L858R), active (Proqinase), 3.6 μM stock; 2.5 nM in final assay.
3. Gastrin Precusor-Biotinylated: Gastrin precursor (Tyr87) biotinylated peptide (EEAY*GWM), Cell Signaling Tech 1310, Lot-7, Want final 0.5 μM in assay
4. ATP: 10 mM stock in 100 μl Enzyme assay buffer pH 7.4 prepared freshly, want 5 μM in final assay.
5. Test compounds: Dissolve powders in 100% DMSO to a final stock concentration of 10 mM (volume in μL to add for 10 mM=mg powder×10^5/MW). Final comp concentration in the assay plate is starting at 10 μM.
1. HTRF buffer: 50 mM Tris-HCl, pH-7.5, 100 mM NaCl, 0.1% BSA, 0.05% Tween20, 0.5 mM EDTA, filter using 0.2 µm pore size, store at 4° C.
Phycolink® Streptavidin-Allophycocyanin (SA-APC) Prozyme, Cat. #PJ25S, Lot #896 085, 2.06 mg/mL, APC concentration is 11.6 μM, streptavidin concentration is 15.5 μM. Want 12 nM final in assay (based on streptavidin concentration).
2. Europium-W1024-PT-66 Anti Phospho Tyrosine Antibody: Perkin Elmer (AD0068), monoclonal IgG1 that recognizes phospho tyrosine peptide 100 μg/ml stock. Want 0.1 nM final in assay.
• 1. Make the compound dilution by TECAN as per the above scheme. • 2. Add 16 μl of diluted compound to the assay plate by using TECAN • 3. Add 10 μl of enzyme mix to each well except mins. • 4. Add 20 μl of substrate and ATP mix into each well of the assay plate manually. • 5. Incubate the plate at room temperature for 60 min with shaking. • 6. Meanwhile prepare the HTRF mix and add 75 μl to the HTRF plate. • 7. When the incubation is over, transfer 10 μl of the reaction mixture to the HTRF assay plate and incubate for 30 min at room temperature with shaking. • 8. Take the reading in Pherastar (ext 337 nm, em 665 & 620 nm). • 9. Analyze the results using Graphpad prism after calculation the z factor, signal window and % inhibition to get the IC50.
Compounds having IC50<10 nM are designated as “A”; 10-100 nM are designated as “B”; and >100 nM as “C”.

T1 sequence (P00533 25-1210 T790M/L858R): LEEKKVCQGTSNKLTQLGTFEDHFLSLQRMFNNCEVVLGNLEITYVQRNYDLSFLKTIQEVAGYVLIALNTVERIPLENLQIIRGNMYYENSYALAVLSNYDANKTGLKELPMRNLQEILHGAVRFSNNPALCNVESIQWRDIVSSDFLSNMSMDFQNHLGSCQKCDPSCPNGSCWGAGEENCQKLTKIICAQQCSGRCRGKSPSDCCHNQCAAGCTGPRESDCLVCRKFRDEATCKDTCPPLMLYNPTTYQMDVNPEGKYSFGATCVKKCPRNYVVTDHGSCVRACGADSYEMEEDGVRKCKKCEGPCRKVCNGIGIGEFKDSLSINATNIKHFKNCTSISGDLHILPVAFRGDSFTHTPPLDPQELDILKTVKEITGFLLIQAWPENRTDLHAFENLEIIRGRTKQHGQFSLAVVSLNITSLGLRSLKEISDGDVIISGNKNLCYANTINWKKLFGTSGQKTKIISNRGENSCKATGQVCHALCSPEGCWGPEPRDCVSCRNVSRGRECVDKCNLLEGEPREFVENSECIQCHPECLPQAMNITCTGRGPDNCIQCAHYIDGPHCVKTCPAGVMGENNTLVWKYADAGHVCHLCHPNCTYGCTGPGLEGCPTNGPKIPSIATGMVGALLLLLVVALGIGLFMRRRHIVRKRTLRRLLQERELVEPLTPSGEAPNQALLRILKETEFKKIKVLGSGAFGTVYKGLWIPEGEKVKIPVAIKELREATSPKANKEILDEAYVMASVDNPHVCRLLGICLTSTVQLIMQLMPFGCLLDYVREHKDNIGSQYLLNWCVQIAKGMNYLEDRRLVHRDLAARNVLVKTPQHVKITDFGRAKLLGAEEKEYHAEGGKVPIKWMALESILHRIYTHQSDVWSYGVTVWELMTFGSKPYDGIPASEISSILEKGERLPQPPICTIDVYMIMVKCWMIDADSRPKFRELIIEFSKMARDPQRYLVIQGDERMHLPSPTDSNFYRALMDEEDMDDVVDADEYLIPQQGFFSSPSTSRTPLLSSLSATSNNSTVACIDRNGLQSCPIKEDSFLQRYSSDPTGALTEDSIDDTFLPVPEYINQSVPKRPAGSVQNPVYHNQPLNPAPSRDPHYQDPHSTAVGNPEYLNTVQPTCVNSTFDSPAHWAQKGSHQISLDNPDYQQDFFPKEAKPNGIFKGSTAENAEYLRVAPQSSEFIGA

Row | SMILES | IC50 [nM]
1 | C=CC(=O)N1CCC(Nc2nc(Nc3cnn(C)c3)ncc2Cl)C1 (racemic) [II-7 (Racemic), 1-(3-((5-chloro-2-((1-methyl-1H-pyrazol-4-yl)amino)pyrimidin-4-yl)amino)pyrrolidin-1-yl)prop-2-en-1-one] | > 100
2 | CN(C)C/C=C/C(=O)N[C@H]1CCC[C@H](CNc2nc(Nc3cnn(C)c3)ncc2Cl)C1 (single isomer, unassigned) [I-103 (diastereomer 2)] | > 100
3 | C=CC(=O)Nc1cc(Nc2nc(Nc3cnn(C)c3)ncc2Cl)ccc1OC1CCOC1 (stereo not drawn) [Compound I-55, N-(5-((5-chloro-2-((1-methyl-1H-pyrazol-4-yl)amino)pyrimidin-4-yl)amino)-2-((tetrahydrofuran-3-yl)oxy)phenyl)acrylamide] | > 100
4 | CN1CCC(n2cc(Nc3ncc(Cl)c(Nc4cccc(NC(=O)C=C5CCCC5)c4)n3)cn2)CC1 [Compound I-30, N-(3-((5-chloro-2-((1-(1-methylpiperidin-4-yl)-1H-pyrazol-4-yl)amino)pyrimidin-4-yl)amino)phenyl)-2-cyclopentylideneacetamide] | > 100
5 | C=CC(=O)NC1CCCC(Nc2nc(Nc3cnn(CCN(C)C)c3)ncc2Cl)C1 (stereo not drawn) [Compound I-99, N-(3-((5-chloro-2-((1-(2-(dimethylamino)ethyl)-1H-pyrazol-4-yl)amino)pyrimidin-4-yl)amino)cyclohexyl)acrylamide] | > 100
6 | C=CC(=O)Nc1cccc(Oc2nc(Nc3cnn(CC4CC4)c3)ncc2Cl)c1 [Compound I-82, N-(3-((5-chloro-2-((1-(cyclopropylmethyl)-1H-pyrazol-4-yl)amino)pyrimidin-4-yl)oxy)phenyl)acrylamide] | 10 to 100
7 | C=CC(=O)NC1CCCC(Nc2nc(Nc3cc(COC)n(C)n3)ncc2Cl)C1 (stereo not drawn) [Compound I-98, N-(3-((5-chloro-2-((5-(methoxymethyl)-1-methyl-1H-pyrazol-3-yl)amino)pyrimidin-4-yl)amino)cyclohexyl)acrylamide] | > 100
8 | C=CC(=O)N[C@H]1CCC[C@@H](Nc2nc(Nc3cnn(C)c3)ncc2Cl)C1 (single isomer, unassigned) [I-104 (Enantiomer 3)] | 10 to 100

Second part, the compound after the results:

Row | IC50 [nM] | SMILES
9 | < 10 | C=CC(=O)Nc1cccc(Nc2nc(Nc3cnn(C4CCNCC4)c3)ncc2Cl)c1 [Compound I-62, N-(3-((5-chloro-2-((1-(piperidin-4-yl)-1H-pyrazol-4-yl)amino)pyrimidin-4-yl)amino)phenyl)acrylamide trifluoroacetate]
10 | 10 to 100 | C=CC(=O)Nc1cccc(Nc2nc(Nc3cnn(CC4CC4)c3)ncc2Cl)c1 [Compound I-7, N-(3-((5-chloro-2-((1-(cyclopropylmethyl)-1H-pyrazol-4-yl)amino)pyrimidin-4-yl)amino)phenyl)acrylamide]
11 | > 100 | C=CC(=O)Nc1cccc(Nc2nc(Nc3cnn(C4CCN(C)CC4)c3)ncc2C(F)(F)F)c1 [Compound I-14, N-(3-((2-((1-(1-methylpiperidin-4-yl)-1H-pyrazol-4-yl)amino)-5-(trifluoromethyl)pyrimidin-4-yl)amino)phenyl)acrylamide]
12 | < 10 | C=CC(=O)Nc1cccc(Nc2nc(Nc3cnn(C)c3)ncc2Cl)c1 [Compound I-19, N-(3-((5-chloro-2-((1-methyl-1H-pyrazol-4-yl)amino)pyrimidin-4-yl)amino)phenyl)acrylamide]
13 | < 10 | C=CC(=O)Nc1cccc(Nc2nc(Nc3cc(C)ns3)ncc2Cl)c1 [Compound I-122, N-(3-((5-chloro-2-((3-methylisothiazol-5-yl)amino)pyrimidin-4-yl)amino)phenyl)acrylamide]
14 | > 100 | C=CC(=O)Nc1cccc(Nc2nc(Nc3cnn(CC(C)(C)O)c3)ncc2Cl)c1 [Compound I-17, N-(3-((5-chloro-2-((1-(2-hydroxy-2-methylpropyl)-1H-pyrazol-4-yl)amino)pyrimidin-4-yl)amino)phenyl)acrylamide]
15 | 10 to 100 | C=CC(=O)Nc1cccc(Nc2nc(Nc3ncc(N4CCN(C)CC4)s3)ncc2Cl)c1 [Compound I-40, N-(3-((5-chloro-2-((5-(4-methylpiperazin-1-yl)thiazol-2-yl)amino)pyrimidin-4-yl)amino)phenyl)acrylamide]
